What was measured:
Type in all cases: in vivo
[1] = test system: wheat (Triticum aestivum); test: Test A postemergence, wheat; conditions: 0 to 100 scale
Method in brief: (§1)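 Seeds sown in loam–sand blend received a directed soil spray preemergence; postemergence plants (2–10 cm, one- to two-leaf stage) were sprayed with test chemicals in non-phytotoxic solvent with surfactant. After about 10 d in greenhouse, injury was scored visually versus untreated controls, 0 (no effect) to 100 (complete control).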

kochia (Kochia scoparia) [2] = test: Test A postemergence, kochia; conditions: 0 to 100 scale
Method in brief: as §1

[3] = test system: ducksalad (Heteranthera limosa); test: Test B flooded paddy test, ducksalad; conditions: Flood, 250 g ai/ha; scale of 0 to 100 where 0 is no effect and 100 is complete control; 13 to 15 d
Method in brief: (§2)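 Plants at the 2-leaf stage were flooded to 3 cm above soil, and test compounds were applied directly into the paddy water, which was held at that depth throughout. After 13 to 15 d in a greenhouse, injury was rated visually against untreated controls on a 0–100 scale (0 no effect, 100 complete control).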

[4] = test system: ryegrass, It. (Italian ryegrass, Lolium multiflorum); test: Test A postemergence, ryegrass, It.; conditions: 0 to 100 scale
Method in brief: as §1

[5] = test system: foxtail, giant (giant foxtail, Setaria faberii); test: Test A preemergence, foxtail, giant; conditions: 0 to 100 scale
Method in brief: as §1

[6] = test system: barnyardgrass (Echinochloa crus-galli); test: Test B flooded paddy test, barnyardgrass; conditions: Flood, 250 g ai/ha; scale of 0 to 100 where 0 is no effect and 100 is complete control; 13 to 15 d
Method in brief: as §2

[7] = test system: galium (catchweed bedstraw, Galium aparine); test: Test A postemergence, galium; conditions: 0 to 100 scale
Method in brief: as §1

[8] = test system: barnyardgrass (Echinochloa crus-galli); test: Test A postemergence, barnyardgrass; conditions: 0 to 100 scale
Method in brief: as §1

[9] = test system: pigweed (Amaranthus retroflexus); test: Test A postemergence, pigweed; conditions: 0 to 100 scale
Method in brief: as §1

[10] = test system: ragweed (common ragweed, Ambrosia elatior); test: Test A postemergence, ragweed; conditions: 0 to 100 scale
Method in brief: as §1

[11] = test system: foxtail, giant (giant foxtail, Setaria faberii); test: Test A postemergence, foxtail, giant; conditions: 0 to 100 scale
Method in brief: as §1

kochia (Kochia scoparia) [12] = test: Test A preemergence, kochia; conditions: 0 to 100 scale
Method in brief: as §1

[13] = test system: pigweed (Amaranthus retroflexus); test: Test A preemergence, pigweed; conditions: 0 to 100 scale
Method in brief: as §1

[14] = test system: ragweed (common ragweed, Ambrosia elatior); test: Test A preemergence, ragweed; conditions: 0 to 100 scale
Method in brief: as §1

[15] = test system: ryegrass, It. (Italian ryegrass, Lolium multiflorum); test: Test A preemergence, ryegrass, It.; conditions: 0 to 100 scale
Method in brief: as §1

[16] = test system: blackgrass (Alopecurus myosuroides); test: Test A postemergence, blackgrass; conditions: 0 to 100 scale
Method in brief: as §1

rice (Oryza sativa) = test: Test B flooded paddy test, rice; conditions: Flood, 250 g ai/ha; scale of 0 to 100 where 0 is no effect and 100 is complete control; 13 to 15 d
Method in brief: as §2

corn (Zea mays) = test: Test A postemergence, corn; conditions: 0 to 100 scale
Method in brief: as §1

[17] = test system: barnyardgrass (Echinochloa crus-galli); test: Test A preemergence, barnyardgrass; conditions: 0 to 100 scale
Method in brief: as §1

[18] = test system: sedge, umbrella (small-flower umbrella sedge, Cyperus difformis); test: Test B flooded paddy test, sedge, umbrella; conditions: Flood, 250 g ai/ha; scale of 0 to 100 where 0 is no effect and 100 is complete control; 13 to 15 d
Method in brief: as §2

Row | Structure (SMILES) | Plant response rating, Wheat ([1]; 125 g ai/ha) | Plant response rating, Wheat ([1]; 500 g ai/ha) | Plant response rating, Kochia (kochia (Kochia scoparia) [2]; 125 g ai/ha) | Plant response rating, Kochia (kochia (Kochia scoparia) [2]; 500 g ai/ha) | Plant response rating, Ducksalad [3] | Plant response rating, Ryegrass, It. ([4]; 125 g ai/ha) | Plant response rating, Ryegrass, It. ([4]; 500 g ai/ha) | Plant response rating, Foxtail, Giant ([5]; 125 g ai/ha) | Plant response rating, Foxtail, Giant ([5]; 500 g ai/ha) | Plant response rating, Barnyardgrass [6] | Plant response rating, Galium ([7]; 125 g ai/ha) | Plant response rating, Galium ([7]; 500 g ai/ha) | Plant response rating, Barnyardgrass ([8]; 125 g ai/ha) | Plant response rating, Barnyardgrass ([8]; 500 g ai/ha) | Plant response rating, Pigweed ([9]; 125 g ai/ha) | Plant response rating, Pigweed ([9]; 500 g ai/ha) | Plant response rating, Ragweed ([10]; 125 g ai/ha) | Plant response rating, Ragweed ([10]; 500 g ai/ha) | Plant response rating, Foxtail, Giant ([11]; 125 g ai/ha) | Plant response rating, Foxtail, Giant ([11]; 500 g ai/ha) | further results
1 | O=C1NCC(C#Cc2ccc(F)cc2)C1C(=O)Nc1ccc(F)c(F)c1F (centres unmarked) [Compound 17] | 0 | 0 | 0 | 0 | 70 | 0 | 0 | 30 | 90 | 0 | 0 | 0 | 20 | 90 | 0 | 0 | 0 | 0 | 0 | 50 | Plant response rating, Kochia (kochia (Kochia scoparia) [12]; 125 g ai/ha): 0; Plant response rating, Kochia (kochia (Kochia scoparia) [12]; 500 g ai/ha): 0; Plant response rating, Pigweed ([13]; 125 g ai/ha): 0; Plant response rating, Pigweed ([13]; 500 g ai/ha): 20; Plant response rating, Ragweed ([14]; 125 g ai/ha): 0; Plant response rating, Ragweed ([14]; 500 g ai/ha): 0; Plant response rating, Ryegrass, It. ([15]; 125 g ai/ha): 0; Plant response rating, Ryegrass, It. ([15]; 500 g ai/ha): 0; Plant response rating, Blackgrass ([16]; 125 g ai/ha): 0; Plant response rating, Blackgrass ([16]; 500 g ai/ha): 0; Plant response rating, Rice (rice (Oryza sativa)): 0; Plant response rating, Corn (corn (Zea mays); 125 g ai/ha): 0; Plant response rating, Corn (corn (Zea mays); 500 g ai/ha): 0; Plant response rating, Barnyardgrass ([17]; 125 g ai/ha): 20; Plant response rating, Barnyardgrass ([17]; 500 g ai/ha): 50; Plant response rating, Sedge, Umbrella [18]: 0
2 | O=C(Nc1cccc(C(F)(F)F)c1)C1CNC(=O)C1C(=O)Nc1cccc(F)c1F (centres unmarked) [Compound 18] | 0 | 0 | 0 | 0 | 40 | 0 | 0 | 50 | 60 | 30 | 0 | 50 | 20 | 30 | 0 | 30 | 0 | 0 | 20 | 50 | Plant response rating, Kochia (kochia (Kochia scoparia) [12]; 125 g ai/ha): 0; Plant response rating, Kochia (kochia (Kochia scoparia) [12]; 500 g ai/ha): 0; Plant response rating, Pigweed ([13]; 125 g ai/ha): 0; Plant response rating, Pigweed ([13]; 500 g ai/ha): 0; Plant response rating, Ragweed ([14]; 125 g ai/ha): 0; Plant response rating, Ryegrass, It. ([15]; 125 g ai/ha): 0; Plant response rating, Ryegrass, It. ([15]; 500 g ai/ha): 20; Plant response rating, Blackgrass ([16]; 125 g ai/ha): 20; Plant response rating, Blackgrass ([16]; 500 g ai/ha): 30; Plant response rating, Rice (rice (Oryza sativa)): 15; Plant response rating, Corn (corn (Zea mays); 125 g ai/ha): 0; Plant response rating, Corn (corn (Zea mays); 500 g ai/ha): 0; Plant response rating, Barnyardgrass ([17]; 125 g ai/ha): 20; Plant response rating, Barnyardgrass ([17]; 500 g ai/ha): 30; Plant response rating, Sedge, Umbrella [18]: 0
3 | O=C1NCC(C#Cc2ccc(F)cc2)C1C(=O)Nc1ccccc1F (centres unmarked) [Compound 19] | 0 | 0 | 0 | 0 | 0 | 0 | 0 | 0 | 20 | 0 | 0 | 0 | 0 | 40 | 0 | 0 | 0 | 0 | 0 | 20 | Plant response rating, Kochia (kochia (Kochia scoparia) [12]; 125 g ai/ha): 0; Plant response rating, Kochia (kochia (Kochia scoparia) [12]; 500 g ai/ha): 0; Plant response rating, Pigweed ([13]; 125 g ai/ha): 0; Plant response rating, Pigweed ([13]; 500 g ai/ha): 0; Plant response rating, Ragweed ([14]; 125 g ai/ha): 0; Plant response rating, Ragweed ([14]; 500 g ai/ha): 0; Plant response rating, Ryegrass, It. ([15]; 125 g ai/ha): 0; Plant response rating, Ryegrass, It. ([15]; 500 g ai/ha): 0; Plant response rating, Blackgrass ([16]; 125 g ai/ha): 0; Plant response rating, Blackgrass ([16]; 500 g ai/ha): 0; Plant response rating, Rice (rice (Oryza sativa)): 0; Plant response rating, Corn (corn (Zea mays); 125 g ai/ha): 0; Plant response rating, Corn (corn (Zea mays); 500 g ai/ha): 0; Plant response rating, Barnyardgrass ([17]; 125 g ai/ha): 0; Plant response rating, Barnyardgrass ([17]; 500 g ai/ha): 50; Plant response rating, Sedge, Umbrella [18]: 0
4 | O=C1NCC(CCc2ccccc2)C1C(=O)Nc1ccccc1F (centres unmarked) [Compound 20] | 0 | 0 | 0 | 0 | 50 | 0 | 0 | 0 | 0 | 0 | 0 | 0 | 0 | 0 | 0 | 0 | 0 | 0 | 0 | 0 | Plant response rating, Kochia (kochia (Kochia scoparia) [12]; 125 g ai/ha): 0; Plant response rating, Kochia (kochia (Kochia scoparia) [12]; 500 g ai/ha): 0; Plant response rating, Pigweed ([13]; 125 g ai/ha): 0; Plant response rating, Pigweed ([13]; 500 g ai/ha): 0; Plant response rating, Ragweed ([14]; 125 g ai/ha): 0; Plant response rating, Ragweed ([14]; 500 g ai/ha): 0; Plant response rating, Ryegrass, It. ([15]; 125 g ai/ha): 0; Plant response rating, Ryegrass, It. ([15]; 500 g ai/ha): 0; Plant response rating, Blackgrass ([16]; 125 g ai/ha): 0; Plant response rating, Blackgrass ([16]; 500 g ai/ha): 0; Plant response rating, Rice (rice (Oryza sativa)): 0; Plant response rating, Corn (corn (Zea mays); 125 g ai/ha): 0; Plant response rating, Corn (corn (Zea mays); 500 g ai/ha): 0; Plant response rating, Barnyardgrass ([17]; 125 g ai/ha): 0; Plant response rating, Barnyardgrass ([17]; 500 g ai/ha): 0; Plant response rating, Sedge, Umbrella [18]: 0
5 | Cc1cccc(C#CC2CNC(=O)C2C(=O)Nc2ccccc2F)c1 (centres unmarked) [Compound 21] | 0 | 0 | 0 | 0 | 40 | 0 | 0 | 0 | 0 | 0 | 0 | 0 | 0 | 50 | 0 | 0 | 0 | 0 | 0 | 20 | Plant response rating, Kochia (kochia (Kochia scoparia) [12]; 125 g ai/ha): 0; Plant response rating, Kochia (kochia (Kochia scoparia) [12]; 500 g ai/ha): 0; Plant response rating, Pigweed ([13]; 125 g ai/ha): 0; Plant response rating, Pigweed ([13]; 500 g ai/ha): 0; Plant response rating, Ragweed ([14]; 125 g ai/ha): 0; Plant response rating, Ragweed ([14]; 500 g ai/ha): 0; Plant response rating, Ryegrass, It. ([15]; 125 g ai/ha): 0; Plant response rating, Ryegrass, It. ([15]; 500 g ai/ha): 20; Plant response rating, Blackgrass ([16]; 125 g ai/ha): 0; Plant response rating, Blackgrass ([16]; 500 g ai/ha): 0; Plant response rating, Rice (rice (Oryza sativa)): 0; Plant response rating, Corn (corn (Zea mays); 125 g ai/ha): 0; Plant response rating, Corn (corn (Zea mays); 500 g ai/ha): 0; Plant response rating, Barnyardgrass ([17]; 125 g ai/ha): 20; Plant response rating, Barnyardgrass ([17]; 500 g ai/ha): 80; Plant response rating, Sedge, Umbrella [18]: 0

— patent US10906873B2, “Substituted cyclic amides as herbicides” (FMC Corporation, priority 2015, dated 2021)
